Assay results taken from US6369034B1, “Functionalized alkyl and alenyl side chain derivatives of glycinamides as farnesyl transferase inhibitors” (Warner-Lambert Company, priority 1998, dated 2002).
Like-named read-outs stand apart in the source and are kept apart here.

Assays:
[1] = target: T1, SF9 affinity purified rat FPT (Rattus norvegicus, UniProt Q02293+Q04631); assay: PFT inhibitory activity; format: biochemical; details: average of two tests
T1 construct: made in house; host or cells: Sf9 insect cells
Protocol: The protein:farnesyl transferase (PFT) or farnesyl protein transferase (FPT) inhibitory activity of compounds of the present invention were assayed in HEPES buffer (pH 7.4) containing 5 mM potassium phosphate and 20 μM ZnCl2. The solution also contained 5 mM DTT (dithiothreitol), 5 mM MgCl2, and 0.1% PEG 8000. Assays were performed in 96 well plates (Wallec) and employed solutions composed of varying concentrations of a compound of the present invention in 10% DMSO (dimethylsulfoxide). Upon addition of both substrates, radiolabeled farnesyl pyrophosphate ([1^3H], specific activity 15-30 Ci/mmol, final concentration 134 nM) and (biotinyl)-Ahe-Thr-Lys-Cys-Val-Ile-Met ([3aS[3a alpha, 4 beta, 6a alpha]-hexahydro-2-oxo-1H-thieno[3,4-d]imidazole-5-pentanoic acid]-[7-aminoheptanoic acid]-Thr-Lys-Cys-Val-Ile-Met) (Ahe is 7-aminoheptanoic acid, Thr is threonine, Lys is lysine, Cys is cysteine, Val is valine, Ile is isoleucine, and Met is methionine) (final concentration 0.2 4μM), the enzyme reaction was started by addition of SF9 affinity purified rat FPT. After incubation at 30° C. for 30 minutes, the reaction was terminated by diluting the reaction 2.5-fold with a stop buffer containing 1.5 M magnesium acetate, 0.2 M H3PO4, 0.5% BSA (bovine serum albumin), and strepavidin beads (Amersham) at a concentration of 1.3 mg/mL. After allowing the plate to settle for 30 minutes at room temperature, radioactivity was quantitated on a microBeta counter (Model 1450, Wallec). The assay was also carried out without 5 mM potassium phosphate.

[2] = system: Ras protein in ras-transformed cells; assay: Gel Shift Assay; format: cell-based; details: 18-hour incubation, read-out: Gel Shift (μM) MED
Protocol: Twenty-four hours after planting 2×10^6 ras-transformned cells per treatment condition, the farnesylation inhibitor is added at varying concentrations. Following an 18-hour incubation period, cells are lysed in phosphate-buffered saline containing 1% Triton X-100, 0.5% sodium deoxycholate, and 0.1% SDS (sodium dodecyl sulfate), pH 7.4 in the presence of several protease inhibitors (PMSF (phenylmethylsulfonylfluoride), antipain, leupeptin, pepstatin A, and aprotinin all at 1 μg/mL). Ras protein is immunoprecipitated from the supernatants by the addition of 3 μg v-H-ras Ab-2 (Y13-259 antibody from Oncogene Science). After overnight immunoprecipitation, 30 μL of a 50% protein G-Sepharose slurry (Pharmacia) is added followed by 45-minute incubation. Pellets are resuspended in 2×tris-glycine loading buffer (Novex) containing 5% mercaptoethanol and then denatured by 5 minutes boiling prior to electrophoresis on 14% Tris-glycine SDS gels. Using Western transfer techniques, proteins are transferred to nitrocellulose membranes followed by blocking in blocking buffer. Upon overnight incubation with primary antibody (pan-ras Ab-2 from Oncogene Science), an antimouse HRP (horse radish peroxidase) conjugate secondary antibody (Amersham) is employed for detection of the ras protein. Blots are developed using ECL(enhanced chemiluminescence) techniques (Amersham).

[3] = system: human lung carcinoma with K-ras mutation and p53 deletion; details: nude mice; cited from earlier work
[4] = system: mammary and salivary carcinomas; details: daily administration; ras transgenic mice; cited from earlier work
[5] = HEPES buffer pH 7.4, without 5 mM potassium phosphate, read-out: IC50 (μM) Hepes
[6] = HEPES buffer pH 7.4 containing 5 mM potassium phosphate, read-out: IC50 (μM) Hepes/5 mM KPO4^−2

| IC50 [1, 5] | IC50 [1, 6] | SMILES | minimal effective concentration [2] | tumor growth [3] | tumor regression [4] |
| --- | --- | --- | --- | --- | --- |
| 0.098 µM | 0.001 µM | CC(C)(CNC(=O)CN(CC(C)(C)c1ccccc1)C(=O)[C@H](Cc1c[nH]cn1)NC(=O)OCc1ccccc1)c1ccccc1 [Example 3, Benzyl N-[(1S)-1-(1H-4-imidazolylmethyl)-2-((2-methyl-2-phenylpropyl)2-[(2-methyl-2-phenylpropyl)amino]-2-oxoethylamino)-2-oxoethyl]carbamate] | 0.01 µM |  |  |
| 4 µM | 0.007 µM | CN(C)C(=O)CCN(CC(=O)NCC(C)(C)c1ccccc1)C(=O)C(Cc1cnc[nH]1)NC(=O)OCc1ccccc1 (centres unmarked) [Example 13, [1-{(2-Dimethylcarbamoyl-ethyl)-[(2-methyl-2-phenyl-propylcarbamoyl)-methyl]-carbamoyl}-2-(3H-imidazol-4-yl)ethyl]-carbamic acid benzyl ester] |  |  |  |
| 5 µM | 0.018 µM | COC(=O)CCN(CC(=O)NCC(C)(C)c1ccccc1)C(=O)[C@H](Cc1c[nH]cn1)NC(=O)OCc1ccccc1 [Example 4, Methyl 3-([(2S)-2-[(benzyloxy)carbonyl]amino-3-(1H-4-imidazolyl)propanoyl]-2-[(2-methyl-2-phenylpropyl)amino]-2-oxoethylamino)propanoate] | 0.1 µM |  |  |
| 1.4 µM | 0.011 µM | C/C=C/CN(CC(=O)NCC(C)(C)c1ccccc1)C(=O)[C@H](Cc1c[nH]cn1)NC(=O)OCc1ccccc1 [Example 9, Benzyl N-[2-((E)-2-butenyl-2-[(2-methyl-2-phenylpropyl)amino]-2-oxoethylamino)-1-(1H-4-imidazolylmethyl1)-2-oxoethyl]carbamate] | 0.01 µM |  |  |
| 4.8 µM | 0.019 µM | COCCN(CC(=O)NCC(C)(C)c1ccccc1)C(=O)C(Cc1cnc[nH]1)NC(=O)OCc1ccccc1 (centres unmarked) [Example 8, (2-(3H-Imidazol-4-yl)-1-{(2-methoxy-ethyl)-[(2-methyl-2-phenyl-propylcarbamoyl)-methyl]-carbamoyl}-ethyl)-carbamic acid benzyl ester] | 0.2 µM |  |  |
| 1.2 µM | 0.006 µM | CSCCN(CC(=O)NCC(C)(C)c1ccccc1)C(=O)C(Cc1cnc[nH]1)NC(=O)OCc1ccccc1 (centres unmarked) [Example 14, {2-(3H-Imidazol-4-yl)-1-[[(2-methyl-2-phenyl-propylcarbamoyl)-methyl]-(2-methylsulfanyl-ethyl)-carbamoyl]-ethyl}-carbamic acid benzyl ester] | 0.05 µM |  |  |
| 2.3 µM | < 0.001 µM | CC(C)(CNC(=O)CN(CCC(=O)O)C(=O)[C@H](Cc1c[nH]cn1)NC(=O)OCc1ccccc1)c1ccccc1 [Example 5, 3-([(2S)-2-[(Benzyloxy)carbonyl]amino-3-(1H-4-imidazolyl)propanoyl]-2-[(2-methyl-2-phenylpropyl)amino]-2-oxoethylamino)propanoic acid] | 1 µM |  |  |
| 36 µM | 0.072 µM | CC(C)(CNC(=O)CN(CCN)C(=O)C(Cc1cnc[nH]1)NC(=O)OCc1ccccc1)c1ccccc1 (centres unmarked) [Example 6, [1-{(2-Amino-ethyl)-[(2-methyl-2-phenyl-propylcarbamoyl)-methyl]-carbamoyl}-2-(3H-imidazol-4-yl)-ethyl]-carbamic acid benzyl ester] | > 1 µM |  |  |
| 2.2 µM | 0.034 µM | CC(C)OC(=O)CCN(CC(=O)NCC(C)(C)c1ccccc1)C(=O)[C@H](Cc1c[nH]cn1)NC(=O)OCc1ccccc1 [Example 12, 3-{[2-Benzyloxycarbonylamino-3-(3H-imidazol-4-yl)-propionyl]-[(2-methyl-2-phenyl-prolylcarbamoyl)-methyl]-amino}-propionic acid isopropyl ester] |  |  |  |
| 2.1 µM | 0.016 µM | CC(C)(CNC(=O)CN(CCN1CCOCC1)C(=O)[C@H](Cc1c[nH]cn1)NC(=O)OCc1ccccc1)c1ccccc1 [Example 11, Benzyl N-(1S)-1-(1H-4-imidazolylmethyl)-2-[2-[(2-methyl-2-phenylpropyl)amino]-2-oxoethyl(2-morpholinoethyl)amino]-2-oxoethylcarbamate] | 0.2 µM |  |  |
| 0.25 µM | 0.004 µM | CC(OC(=O)NC(Cc1c[nH]cn1)C(=O)N(CC(=O)NCC(C)(C)c1ccccc1)Cc1ccc(OCc2ccccc2)cc1)c1ccccc1 (centres unmarked) [Example 10, [1-{(4-Benzyloxy-benzyl)-[(2-methyl-2-phenyl-propylcarbamoyl)-methyl]-carbamoyl}-2-(1H-imidazol-4-yl)-ethyl]-carbamic acid 1-phenyl-ethyl ester] | 0.01 µM |  |  |
| 8.3 µM | 0.065 µM | C[C@H](c1ccccc1)N(CC(=O)NCC(C)(C)c1ccccc1)C(=O)[C@H](Cc1c[nH]cn1)NC(=O)OCc1ccccc1 [Example 2, Benzyl N-((1S)-1-(1H-4-imidazolylmethyl)-2-2-[(2-methyl-2-phenylpropyl)amino]-2-oxoethyl[(1R)-1-phenylethyl]amino-2-oxoethyl)carbamate] | 1 µM |  |  |
|  |  | CSCC[C@H](NC(=O)c1ccc(NC[C@@H](N)CS)cc1-c1ccccc1)C(=O)O [FT1276] |  | selectively block tumor growth |  |
| > 30 µM | 0.92 µM | CNCCN(CC(=O)NCC(C)(C)c1ccccc1)C(=O)[C@H](Cc1c[nH]cn1)NC(=O)OCc1ccccc1 [Example 7, Benzyl N-[(1S)-1-(1H-4-imidazolylmethyl)-2-([2-(methylamino)ethyl]-2-[(2-methyl-2-phenylpropyl)amino]-2-oxoethylamino)-2-oxoethyl]carbamate] |  |  |  |
|  |  | CC[C@H](C)[C@@H](CO[C@@H](Cc1ccccc1)C(=O)N[C@@H](CCS(C)(=O)=O)C(=O)OC(C)C)NC[C@@H](N)CS [L-744,832] |  |  | caused tumor regression |

| SMILES | IC50 [1, 5] | IC50 [1, 6] | minimal effective concentration [2] | tumor growth [3] | tumor regression [4] |
| --- | --- | --- | --- | --- | --- |
| C[C@@H](c1ccccc1)N(CC(=O)NCC(C)(C)c1ccccc1)C(=O)[C@H](Cc1c[nH]cn1)NC(=O)OCc1ccccc1 [Example 1, Benzyl N-((1S)-1-(1H-4-imidazolylmethyl)-2-2-[(2-methyl-2-phenylpropyl)amino]-2-oxoethyl[(1S)-1-phenylethyl]amino-2-oxoethyl)carbamate] | 0.57 µM | 0.001 µM | 0.01 µM |  |  |
